Laboratory results as given in US10851083B2, “Benzoimidazoles as prolyl hydroxylase inhibitors” (Janssen Pharmaceutica NV, priority 2008, dated 2020).

Tests used:
[1] = tested on: Hep-3B cells; assay: Cellular assay: EPO secretion in Hep-3B cells; assay type: cell-based, human; parameters: EPO secretion, % of control compound: dose or concentration left out as unconfirmed; conditions: 24 h, EPO secretion as percentage of control compound 7-[(4-Chloro-phenyl)-(5-methyl-isoxazol-3-ylamino)-methyl]-quinolin-8-ol; for EPO secretion, % of control compound: Homo sapiens, Hep3B, read-out: Cellular % EPO Stimulation; for Cellular % EPO Stimulation: compound at 100 μM (10 μM or 100 μM)
[2] = target: human PHD2181-417 (Homo sapiens (Human), UniProt Q9GZT9); assay: PHD2 enzyme activity assay ([14C]-succinic acid production); assay type: biochemical; conditions: PHD2181-417 polypeptide, HIF-1α peptide 10 μM, [5-14C]-2-oxoglutaric acid, 30 min pre-incubation, tested 10 μM to 3 nM; for IC50: read-out: Enzyme pIC50 (converted);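 on all read-outs here: reaction ran 10 min with compound in Tris pH 7.5 buffer with catalase, DTT and ascorbate, labelled succinate freed of leftover 2-oxoglutarate by DNP precipitation, then beta counted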
Chain of human PHD2181-417 (Q9GZT9 181-417): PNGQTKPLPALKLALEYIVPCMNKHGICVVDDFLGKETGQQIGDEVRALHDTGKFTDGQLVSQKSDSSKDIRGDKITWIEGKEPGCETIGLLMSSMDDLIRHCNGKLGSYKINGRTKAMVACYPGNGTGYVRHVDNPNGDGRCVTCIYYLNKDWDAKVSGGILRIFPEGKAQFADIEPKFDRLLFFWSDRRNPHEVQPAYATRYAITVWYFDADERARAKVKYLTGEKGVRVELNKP

Enzyme pIC50 [2]	IC50 [2] [µM]	SMILES	EPO secretion, % of control compound [1] [%]	Cellular % EPO Stimulation [1] [%]
6.5		CCCNc1cc2nc(-n3cc(C(=O)O)cn3)[nH]c2cc1Cl [Example 131, 1-(6-Chloro-5-propylamino-1H-benzoimidazol-2-yl)-1H-pyrazole-4-carboxylic Acid]	89	
7.3		C[S+]([O-])c1cc2[nH]c(-n3cc(C(=O)O)cn3)nc2cc1C(F)(F)F (stereo not drawn) [Example 108, 1-(6-Methanesulfinyl-5-trifluoromethyl-1H-benzoimidazol-2-yl)-1H-pyrazole-4-carboxylic Acid]	20.4	
7.4		O=C(O)c1cnn(-c2nc3cc(S(=O)(=O)Nc4ccccc4)c(Cl)cc3[nH]2)c1 [Example 186, 1-(6-Chloro-5-phenylsulfamoyl-1H-benzoimidazol-2-yl)-1H-pyrazole-4-carboxylic Acid]	39.1	
6.4		CCC(=O)Nc1cc2nc(-n3cc(C(=O)O)cn3)[nH]c2cc1Cl [Example 140, 1-(6-Chloro-5-propionylamino-1H-benzoimidazol-2-yl)-1H-pyrazole-4-carboxylic Acid]	10	
6.2		O=C(CN1CCCCC1)Nc1cc2nc(-n3cc(C(=O)O)cn3)[nH]c2cc1Cl [Example 143, 1-[6-Chloro-5-(2-piperidin-1-yl-acetylamino)-1H-benzoimidazol-2-yl]-1H-pyrazole-4-carboxylic Acid]	20	
7.6		O=C(O)c1cnn(-c2nc3cc(S(=O)(=O)c4ccccc4)c(C(F)(F)F)cc3[nH]2)c1 [Example 161, 1-(5-Benzenesulfonyl-6-trifluoromethyl-1H-benzoimidazol-2-yl)-1H-pyrazole-4-carboxylic Acid]	98.2	
6.9		O=C(O)c1cnn(-c2nc3cc(SCC4CCCCC4)c(Cl)cc3[nH]2)c1 [Example 165, 1-(6-Chloro-5-cyclohexylmethylsulfanyl-1H-benzoimidazol-2-yl)-1H-pyrazole-4-carboxylic Acid]	27.3	
6.3		O=C(O)c1cnn(-c2nc3cc(COCc4ccccc4)ccc3[nH]2)c1 [Example 123, 1-(5-Benzyloxymethyl-1H-benzoimidazol-2-yl)-1H-pyrazole-4-carboxylic Acid]	61.1	
6.3		O=C(O)c1cnn(-c2nc3cc4ccccc4cc3[nH]2)c1 [Example 114, 1-(1H-Naphtho[2,3-d]imidazol-2-yl)-1H-pyrazole-4-carboxylic Acid]	144	
5.5		O=C(O)c1cnn(-c2nc3nc4ccccc4nc3[nH]2)c1 [Example 182, 1-(1H-Imidazo[4,5-b]quinoxalin-2-yl)-1H-pyrazole-4-carboxylic Acid]	13.4	
7.3		CC(C)S(=O)(=O)c1cc2[nH]c(-n3cc(C(=O)O)cn3)nc2cc1Cl [Example 101, 1-[5-Chloro-6-(propane-2-sulfonyl)-1H-benzoimidazol-2-yl]-1H-pyrazole-4-carboxylic Acid]	62.2	
7.1		O=C(O)c1cnn(-c2nc3c(Br)c(Cl)c(Cl)cc3[nH]2)c1 [Example 128, 1-(4-Bromo-5,6-dichloro-1H-benzoimidazol-2-yl)-1H-pyrazole-4-carboxylic Acid]	24.1	
6.5		O=C(O)c1cnn(-c2nc3cc(SCc4ccc(Cl)cc4)c(Cl)cc3[nH]2)c1 [Example 163, 1-[6-Chloro-5-(4-chloro-benzylsulfanyl)-1H-benzoimidazol-2-yl]-1H-pyrazole-4-carboxylic Acid]	37	
6.4		O=C(CN1CCOCC1)Nc1cc2nc(-n3cc(C(=O)O)cn3)[nH]c2cc1Cl [Example 142, 1-[6-Chloro-5-(2-morpholin-4-yl-acetylamino)-1H-benzoimidazol-2-yl]-1H-pyrazole-4-carboxylic Acid]	17	
7.1		COc1ccc(Oc2cc3nc(-n4cc(C(=O)O)cn4)[nH]c3cc2Cl)cc1 [Example 145, 1-[6-Chloro-5-(4-methoxy-phenoxy)-1H-benzoimidazol-2-yl]-1H-pyrazole-4-carboxylic Acid]	13.9	
6.9		O=C(O)c1cnn(-c2nc3c(Cl)c(Cl)c(Cl)cc3[nH]2)c1 [Example 127, 1-(4,5,6-Trichloro-1H-benzoimidazol-2-yl)-1H-pyrazole-4-carboxylic Acid]	70.6	
7.6		O=C(O)c1cnn(-c2nc3cc(S(=O)(=O)Cc4cccc(Cl)c4)c(Cl)cc3[nH]2)c1 [Example 174, 1-[6-Chloro-5-(3-chloro-phenylmethanesulfonyl)-1H-benzoimidazol-2-yl]-1H-pyrazole-4-carboxylic Acid]	40.9	

Second part, the molecule before the results:

SMILES	Enzyme pIC50 [2]	IC50 [2] [µM]	EPO secretion, % of control compound [1] [%]	Cellular % EPO Stimulation [1] [%]
CCSc1cc2[nH]c(-n3cc(C(=O)O)cn3)nc2cc1Cl [Example 76, 1-(5-Chloro-6-ethylsulfanyl-1H-benzoimidazol-2-yl)-1H-pyrazole-4-carboxylic Acid]	6.9		212	
O=C(O)c1cn(-c2nc3cc(Cl)c(Cl)cc3[nH]2)nc1C(F)(F)F [Example 20, 1-(5,6-dichloro-1H-benzoimidazol-2-yl)-3-trifluoromethyl-1H-pyrazole-4-carboxylic Acid]		> 100		18.81
O=C(O)c1cnn(-c2nc3cc(F)ccc3[nH]2)c1 [Example 42, 1-(5-Fluoro-1H-benzoimidazol-2-yl)-1H-pyrazole-4-carboxylic Acid]	6.3		33.8	
O=C(O)c1cnn(-c2nc3cc([N+](=O)[O-])c(Cl)cc3[nH]2)c1 [Example 40, 1-(6-Chloro-5-nitro-1H-benzoimidazol-2-yl)-1H-pyrazole-4-carboxylic Acid]	7.5		93.4	
COc1ccc(Sc2cc3nc(-n4cc(C(=O)O)cn4)[nH]c3cc2Cl)cc1 [Example 65, 1-[6-Chloro-5-(4-methoxy-phenylsulfanyl)-1H-benzoimidazol-2-yl]-1H-pyrazole-4-carboxylic Acid]	6.6		56.3	
O=C(O)c1cnn(-c2nc3cc(Oc4ccc(Cl)c(Cl)c4)c(C(F)(F)F)cc3[nH]2)c1 [Example 50, 1-[5-(3,4-Dichloro-phenoxy)-6-trifluoromethyl-1H-benzoimidazol-2-yl]-1H-pyrazole-4-carboxylic Acid]	7.4		18	
Cc1nn(-c2nc3cc(Cl)c(Cl)cc3[nH]2)c(C)c1C(=O)O [Example 22, 1-(5,6-Dichloro-1H-benzoimidazol-2-yl)-3,5-dimethyl-1H-pyrazole-4-carboxylic Acid]		> 100		0.47
N#Cc1cc2nc(-n3cc(C(=O)O)cn3)[nH]c2cc1Cl [Example 39, 1-(6-Chloro-5-cyano-1H-benzoimidazol-2-yl)-1H-pyrazole-4-carboxylic Acid]	7.4		29.9	
O=C(O)c1cnn(-c2nc3c(Br)c(F)c(F)cc3[nH]2)c1 [Example 32, 1-(4-Bromo-5,6-difluoro-1H-benzoimidazol-2-yl)-1H-pyrazole-4-carboxylic Acid]	6.7		33	
O=C(O)c1cnn(-c2nc3cc(SCc4ccccc4Cl)c(Cl)cc3[nH]2)c1 [Example 69, 1-[6-Chloro-5-(2-chloro-benzylsulfanyl)-1H-benzoimidazol-2-yl]-1H-pyrazole-4-carboxylic Acid]	6.8		85.3	
O=C(O)c1cnn(-c2nc3cc(Sc4ccc(Cl)cc4)c(Cl)cc3[nH]2)c1 [Example 61, 1-[6-Chloro-5-(4-chloro-phenylsulfanyl)-1H-benzoimidazol-2-yl]-1H-pyrazole-4-carboxylic Acid]	7.07		101	
O=C(O)c1cnn(-c2nc3cc(S(=O)(=O)Cc4ccccc4)c(Cl)cc3[nH]2)c1 [Example 89, 1-(6-Chloro-5-phenylmethanesulfonyl-1H-benzoimidazol-2-yl)-1H-pyrazole-4-carboxylic Acid]	7.5		28.4	
O=C(O)c1cnn(-c2nc3c(F)c(F)c(F)cc3[nH]2)c1 [Example 31, 1-(4,5,6-Trifluoro-1H-benzoimidazol-2-yl)-1H-pyrazole-4-carboxylic Acid]	7		18.2	
CS(=O)(=O)c1ccc2nc(-n3cc(C(=O)O)cn3)[nH]c2c1 [Example 38, 1-(6-Methanesulfonyl-1H-benzoimidazol-2-yl)-1H-pyrazole-4-carboxylic Acid]	7.1		40.9	
O=C(O)c1cnn(-c2nc3cc(Oc4ccccc4)c(Cl)cc3[nH]2)c1 [Example 57, 1-(6-Chloro-5-phenoxy-1H-benzoimidazol-2-yl)-1H-pyrazole-4-carboxylic Acid]	6.9		55	
CS(=O)(=O)c1cc2[nH]c(-n3cc(C(=O)O)cn3)nc2cc1F [Example 98, 1-(5-Fluoro-6-methanesulfonyl-1H-benzoimidazol-2-yl)-1H-pyrazole-4-carboxylic Acid]	7.3		41.4	
